Laboratory results: patent US20200123127A1, “REMOVAL OF SENESCENCE-ASSOCIATED MACROPHAGES” (EVERON BIOSCIENCES, INC., priority 2016, published 2020)
Read-outs that look alike come from different tables or passages of the source.

B1: IFN-γ: type II interferon, M1-inducing agent (protein, UniProt P01579 24-161, looked up)
Interferon gamma: QDPYVKEAENLKKYFNAGHSDVADNGTLFLGILKNWKEESDRKIMQSQIVSFYFKLFKNFKDDQSIQKSVETIKEDMNVKFFNSNKKKRDDFEKLTNYSVTDLNVQRKAIHELIQVMAELSPAAKTGKRKRSQMLFRG

How the values were obtained:
[1] = test system: human neonatal dermal fibroblasts (NDF); assay: Resazurin viability assay, senescent vs proliferating/quiescent human neonatal dermal fibroblasts; assay type: cell-based; details: for IC50: Homo sapiens, Fibroblast, 72 h, 72 hour exposure; for Selectivity (Prolif/Sen): NDF
Experimental: FIG. 2. Compound A1.1 selectively kills senescent human neonatal dermal fibroblasts (NDF) cells in a dose- and time-dependent manner. (FIG. 2A) Normal proliferating and quiescent NDF cells, and the cells made senescent via exposure to genotoxic agents (doxorubicin, bleomycin and gamma-irradiation) were incubated with increasing concentrations of A1.1. At 72 hours post-treatment cell viability was measured via resazurin viability assay. (FIG. 2B) Compound A1.1 selectively kills senescent NDF cells in time-dependent manner discriminating between acute genotoxic stress and senescence. Acutely damaged NDF cells were irradiated with 4 Gy gamma-irradiation 24 hours before A1.1 treatment. Senescent NDF cells were treated with bleomycin or irradiated with 15 Gy and incubated for 14 days to induce senescence before treatment with A1.1. Proliferating acutely damaged and senescent NDF cell were treated with 1.875-30 μM A1.1 and viable cells were measured at 72 hours after treatment. Average and standard deviation are shown.
Normal proliferating and quiescent NDF cells, and the cells made senescent via exposure to genotoxic agents (doxorubicin, bleomycin and gamma-irradiation) were incubated with increasing concentrations of A1.1. At 72 hours post-treatment cell viability was measured via resazurin viability assay.
A1.1 selectively kills senescent human neonatal dermal fibroblasts (NDF) cells in time-dependent manner discriminating between acute genotoxic stress and senescence ([…]). Acutely damaged NDF cells were irradiated with 4 Gy gamma-irradiation 24 hours before A1.1 treatment. Senescent NDF cells were treated with bleomycin or irradiated with 15 Gy and incubated for 14 days to induce senescence before treatment with A1.1.
Cytotoxicity of A1.1 analogs against bleomycin-induced senescent human NDFs and rat dermal fibroblasts (RDFs). Activity of analogs was assessed from dose-response curves against irradiation- or bleomycin-induced senescent and proliferating cells to calculate IC50s (uM). The fold difference of proliferating versus senescent cell IC50s was used to assess the level of specific anti-senescent activity of the compounds.
For generation senescent human neonatal dermal fibroblasts (NDFs) and adult rat dermal fibroblasts (RDFs), cells are treated at ˜10 ug/ml bleomycin for 3 days (for bleomycin-induced senescence) or irradiated once at 20 Gy using a gamma irradiator (Cs source), followed by at least 7 day recovery in fresh medium for induction of senescence. Senescent and non-senescent (proliferating) cells for each cell line are plated into 384-w plate, followed by 72 hour exposure to a dose titration of compounds. Viability measurements are estimated using the resazurin viability assay. Using GraphPad Prism 5, the IC50 values are calculated from the non-linear regression of log-transformed compound concentrations versus dose-response normalized to background and non-treated controls.

[2] = test system: p16(Ink4a) in mLF and mVAT fibroblasts; assay: Modulation of p16(Ink4a) in mouse lung and visceral adipose tissue-derived fibroblasts; assay type: cell-based; details: for Modulation of p16(Ink4a): mLF and mVAT Senescent: 20Gy irradiation for senescence induction; for Modulation of p16(Ink4a): mLF and mVAT Proliferating: without irradiation
Text: We next sought to determine whether immunomodulatory agents, and other small molecules, were capable of selectively modulating p16(Ink4a) expression in SAMs by comparing their effects on p16 expression in SAMs to that of mouse lung fibroblasts (mLF) and mouse visceral adipose tissue-derived fibroblasts (mVAT). […] Immunomodulatory agents cause little to no change in p16 expression in fibroblasts. For example, mouse fibroblasts are reported to respond to LPS and IL-4 (expressing TLR4 and IL-4R, respectively), yet these agents are unable to modulate p16 in fibroblasts.

[3] = test system: adipose-derived mesenchymal stromal cells (AdMSC) from p16Ink4a/Luc mice; assay: Luciferase and β-galactosidase activities in senescent and proliferating adipose-derived mesenchymal stromal cells; assay type: cell-based, mouse
Text: FIG. 10. Elevated p16(Ink4a) and β-galactosidase is regulated by immunomodulatory agents in macrophages, but not in mesenchymal SCs. Primary cultures of adipose-derived mesenchymal stromal cells (AdMSC) isolated from p16^Ink4a/Luc mice were irradiated (20 Gy) and cultured for 10 days for senescence induction. Mock irradiated cells were used as a proliferating cell control. Response of senescent and proliferating AdMSCs to immunomodulatory agents were compared to that of peritoneal lavage cells elicited by our alginate bead model. A-D) Dose-response curves of LPS (top panels: […]) and Poly(I:C) (bottom panels: C&D) on p16(Ink4a) promoter-dependent luciferase activity (left panels: A&C) and beta-galactosidase activity measured via 4-MUG hydrolysis (right panels: B&D) after 72 hr treatment. No effect on viability was observed via CyQuant Direct assay (>80% viability). Results are shown as the mean±standard deviation for at least 3 experiments.
Primary cultures of adipose-derived mesenchymal stromal cells (mAdMSC) were established from the stromal vascular fraction of inguinal adipose tissues of young p16^LUC mice, as described. Isolated adherent cultures were maintained in DMEM/F12 medium supplemented with 15% FBS and 1× anti-biotic/anti-mycotic solution (Thermo Fisher Scientific) in a tri-gas tissue culture incubator at 37° C., 5% CO2 and 3% O2. Medium was change twice per week, and cell passaging performed when cells reached ˜80-90% confluency. For induction of senescence, passage 1 cells were irradiated in suspension at 20 Gy, and replated cultures were maintained at 21% 02.
We investigated whether the mechanisms regulating the expression of these traits in macrophages were similar to those found in SCs. Using cells isolated from p16^Ink4a/Luc mice, the dose-dependent response of luciferase and β-galactosidase activities to immunomodulatory stimuli in macrophages was compared to that of proliferating and irradiation-induced senescent adipose-derived mesenchymal stromal cells. […] LPS stimulation of alginate bead model-elicited macrophages reduced luciferase activity, with maximal inhibition (˜85%) observed at concentrations ≥1 ng/mL (FIG. 10A). In addition, β-galactosidase activity was reduced by 40% at 10 ng/mL (FIG. 10B).
In contrast, luciferase and β-galactosidase activities were unaltered in senescent and proliferating mesenchyme in response to LPS (up to 1 μg/mL) (FIGS. 10A&B).

[4] = proliferating NDF, resazurin, read-out: IC50 NDFprolif
[5] = senescent NDF, bleomycin-induced, resazurin, read-out: IC50 NDFsen.bleo
[6] = light or radiation study, senescent NDF, irradiation-induced, resazurin, read-out: IC50 NDFsen.irr

Molecule	Modulation of p16(Ink4a): mLF and mVAT Senescent [2]	Modulation of p16(Ink4a): mLF and mVAT Proliferating [2]	p16(Ink4a) response of senescent vs proliferating mesenchymal cells [3]	further results
CCOC(=O)c1sc(SCc2ccccc2)c2c1CC(c1ccc(OC)cc1)C/C2=N\O (centres unmarked) [Example A1.1]	–	–	–	IC50 [1, 4]: > 20 µM; IC50 [1, 5]: < 5 µM; IC50 [1, 6]: < 10 µM; Selectivity (Prolif/Sen) ([1]; Bleomycin): 5.3; Selectivity (Prolif/Sen) ([1]; Irradiation): 2.9; effect on viability of proliferating or quiescent NDF cells ([1]; concentrations up to 10 μM, 72 hours, resazurin): no significant effect
COc1ccc(C2CC(=NO)c3c(SCc4ccccc4)sc(C(=O)NCc4cccc(F)c4)c3C2)cc1 (centres unmarked) [Example A1.6, 3-(Benzylthio)-N-(3-fluorobenzyl)-4-(hydroxyimino)-6-(4-methoxyphenyl)-4,5,6,7-tetrahydrobenzo[c]thiophene-1-carboxamide]	no change	no change	–	IC50 [1, 4]: > 20 µM; IC50 [1, 5]: < 5 µM; IC50 [1, 6]: < 5 µM
O=C(NCCCc1cn[nH]c1)c1ccc(-c2ccncc2)c(C#Cc2ccc(F)cc2)c1 [OT-82]	no change	no change	–	–
IFN-α	–	–	lacking a differential response	–
IL-4: M2-polarizing cytokine	no change	no change	lacking a differential response	–
IL-13: M2-polarizing cytokine	no change	no change	lacking a differential response	–
Poly(I:C)	no change	no change	–	–
B1	–	–	lacking a differential response	–
